Assay results reported in ChEMBL document CHEMBL1201862, “PubChem BioAssay data set” (2004).
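Tested at 5 concentrations; 48 h exposure; 96-well plates; endpoints linearly interpolated, else capped at highest concentration. The concentration for 50% growth inhibition is given as GI50.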 Activity calls are given as the source filed them. Cut-off read from the data, not from the text of the source: active = GI50 up to about 1.1 µM and inactive = higher.

Key:
Assay in all cases: NCI tumour cell line growth inhibition, 48 h
M14 = tested on: M14
SK-MEL-28 = tested on: SK-MEL-28
COLO 205 = tested on: COLO 205
OVCAR-4 = tested on: OVCAR-4
SW-620 = tested on: SW-620
CCRF-CEM = tested on: CCRF-CEM
Malme-3M = tested on: Malme-3M
RXF 631 = tested on: RXF 631
NCI-H226 = tested on: NCI-H226
ACHN = tested on: ACHN
SF-539 = tested on: SF-539
SNB-75 = tested on: SNB-75
HOP-62 = tested on: HOP-62
HL-60 = tested on: HL-60
SNB-78 = tested on: SNB-78
LOX IMVI = tested on: LOX IMVI
SR = tested on: SR
M19-MEL = tested on: M19-MEL
SK-OV-3 = tested on: SK-OV-3
U-251 = tested on: U-251
UACC-62 = tested on: UACC-62
RXF 393 = tested on: RXF 393
786-0 = tested on: 786-0
CAKI-1 = tested on: CAKI-1
SNB-19 = tested on: SNB-19
XF498 = tested on: XF498
K562 = tested on: K562
UO-31 = tested on: UO-31
RPMI-8226 = tested on: RPMI-8226
SN12C = tested on: SN12C
KM12 = tested on: KM12
HCC 2998 = tested on: HCC 2998
DMS-114 = tested on: DMS-114
A549 = tested on: A549
NCI-H460 = tested on: NCI-H460
SF-295 = tested on: SF-295
HCT-116 = tested on: HCT-116
EKVX = tested on: EKVX
NCI-H23 = tested on: NCI-H23
UACC-257 = tested on: UACC-257
MOLT-4 = tested on: MOLT-4
OVCAR-5 = tested on: OVCAR-5
HCT-15 = tested on: HCT-15
HOP-92 = tested on: HOP-92
DLD-1 = tested on: DLD-1
KM-20L2 = tested on: KM-20L2
SK-MEL-5 = tested on: SK-MEL-5
IGROV-1 = tested on: IGROV-1
OVCAR-8 = tested on: OVCAR-8
A498 = tested on: A498
SF-268 = tested on: SF-268
NCI-H522 = tested on: NCI-H522
LXFL 529 = tested on: LXFL 529
DMS-273 = tested on: DMS-273
TK-10 = tested on: TK-10
OVCAR-3 = tested on: OVCAR-3
HT-29 = tested on: HT-29
SK-MEL-2 = tested on: SK-MEL-2
HOP-18 = tested on: HOP-18

Measured: GI50

CC(=O)N1CCN(C=S)CC1
inactive: M14 > 100 µM | SK-MEL-28 > 100 µM | COLO 205 > 100 µM | OVCAR-4 > 100 µM | SW-620 > 100 µM | CCRF-CEM > 100 µM | Malme-3M > 100 µM | RXF 631 > 100 µM | NCI-H226 > 100 µM | ACHN > 100 µM | SF-539 > 100 µM | SNB-75 > 100 µM | HOP-62 > 100 µM | HL-60 > 100 µM | SNB-78 > 100 µM | LOX IMVI > 100 µM | SR > 100 µM | M19-MEL > 100 µM | SK-OV-3 > 100 µM | U-251 > 100 µM | UACC-62 > 100 µM | RXF 393 > 100 µM | 786-0 > 100 µM | CAKI-1 > 100 µM | SNB-19 > 100 µM | XF498 > 100 µM | K562 > 100 µM | UO-31 > 100 µM | RPMI-8226 > 100 µM | SN12C > 100 µM | KM12 > 100 µM | HCC 2998 > 100 µM | DMS-114 > 100 µM | A549 > 100 µM | NCI-H460 > 100 µM | SF-295 > 100 µM | HCT-116 > 100 µM | EKVX > 100 µM | NCI-H23 > 100 µM | UACC-257 > 100 µM | MOLT-4 > 100 µM | OVCAR-5 > 100 µM | HOP-92 > 100 µM | DLD-1 > 100 µM | KM-20L2 > 100 µM | SK-MEL-5 > 100 µM | IGROV-1 > 100 µM | OVCAR-8 > 100 µM | A498 > 100 µM | SF-268 > 100 µM | NCI-H522 > 100 µM | LXFL 529 > 100 µM | DMS-273 > 100 µM | TK-10 > 100 µM | OVCAR-3 > 100 µM | HT-29 > 100 µM
> 100 µM: HCT-15

O=C(O)CNS(=O)(=O)c1ccc(NC(=O)CI)cc1
17.6 µM: HCT-15
inactive: M14 18.6 µM | SK-MEL-28 24.4 µM | COLO 205 26.2 µM | OVCAR-4 18 µM | SW-620 13.2 µM | CCRF-CEM 2.33 µM | Malme-3M 18.8 µM | RXF 631 16.4 µM | NCI-H226 > 100 µM | ACHN 52 µM | SF-539 16.1 µM | SNB-75 17.1 µM | HL-60 18.2 µM | LOX IMVI 19 µM | M19-MEL 32.4 µM | SK-OV-3 33.8 µM | U-251 19.1 µM | UACC-62 25.1 µM | RXF 393 15.5 µM | 786-0 14.9 µM | CAKI-1 40.7 µM | SNB-19 58.2 µM | XF498 14.6 µM | SK-MEL-2 23.3 µM | K562 10.2 µM | UO-31 20 µM | RPMI-8226 15.7 µM | SN12C 32.5 µM | KM12 24.8 µM | HCC 2998 > 100 µM | A549 91.2 µM | NCI-H460 25.7 µM | SF-295 26.3 µM | EKVX 32.7 µM | NCI-H23 18.3 µM | UACC-257 42.5 µM | MOLT-4 12.1 µM | OVCAR-5 27.6 µM | HOP-92 19.4 µM | DLD-1 26.9 µM | KM-20L2 23.1 µM | SK-MEL-5 22.2 µM | HOP-18 34.3 µM | IGROV-1 26.5 µM | OVCAR-8 21.1 µM | A498 > 100 µM | SF-268 18.8 µM | NCI-H522 2.16 µM | LXFL 529 6.97 µM | DMS-273 17.7 µM | TK-10 63 µM | OVCAR-3 24 µM | HT-29 21.2 µM

CC(=O)OCCOCBr
> 100 µM: HCT-15
inactive: M14 > 100 µM | SK-MEL-28 > 100 µM | COLO 205 > 100 µM | OVCAR-4 > 100 µM | SW-620 > 100 µM | CCRF-CEM > 100 µM | Malme-3M > 100 µM | RXF 631 > 100 µM | NCI-H226 > 100 µM | ACHN > 100 µM | SF-539 > 100 µM | SNB-75 > 100 µM | HOP-62 > 100 µM | HL-60 > 100 µM | LOX IMVI > 100 µM | M19-MEL > 100 µM | SK-OV-3 > 100 µM | U-251 > 100 µM | UACC-62 > 100 µM | RXF 393 > 100 µM | 786-0 > 100 µM | CAKI-1 > 100 µM | XF498 > 100 µM | SK-MEL-2 > 100 µM | K562 > 100 µM | UO-31 > 100 µM | RPMI-8226 > 100 µM | SN12C > 100 µM | KM12 > 100 µM | DMS-114 > 100 µM | A549 > 100 µM | NCI-H460 > 100 µM | SF-295 > 100 µM | HCT-116 > 100 µM | EKVX > 100 µM | UACC-257 > 100 µM | OVCAR-5 > 100 µM | HOP-92 > 100 µM | DLD-1 > 100 µM | KM-20L2 > 100 µM | SK-MEL-5 > 100 µM | HOP-18 > 100 µM | IGROV-1 > 100 µM | OVCAR-8 > 100 µM | A498 > 100 µM | SF-268 > 100 µM | NCI-H522 > 100 µM | LXFL 529 > 100 µM | DMS-273 > 100 µM | TK-10 > 100 µM | OVCAR-3 > 100 µM | HT-29 > 100 µM

C[n+]1c2ccccc2c(NC(CS)C(=O)O)c2ccccc21 (stereo not given)
inactive: M14 27.5 µM | COLO 205 30.1 µM | OVCAR-4 29.8 µM | SW-620 39.3 µM | Malme-3M 24.2 µM | RXF 631 37.2 µM | NCI-H226 45 µM | ACHN 36.5 µM | SF-539 20.7 µM | SNB-75 24.2 µM | HOP-62 30.3 µM | HL-60 17.6 µM | SNB-78 45.2 µM | SR 16.4 µM | M19-MEL 27.4 µM | SK-OV-3 23.3 µM | U-251 24.5 µM | UACC-62 15.2 µM | RXF 393 22.3 µM | 786-0 24 µM | CAKI-1 28.5 µM | SNB-19 40.6 µM | XF498 18.4 µM | SK-MEL-2 28.2 µM | K562 28.6 µM | UO-31 16.2 µM | RPMI-8226 18.6 µM | SN12C 52 µM | KM12 18.6 µM | HCC 2998 32.9 µM | DMS-114 29.2 µM | A549 22.6 µM | NCI-H460 29.8 µM | SF-295 19.9 µM | HCT-116 13.5 µM | EKVX 24.4 µM | NCI-H23 32 µM | UACC-257 33.7 µM | MOLT-4 13.8 µM | OVCAR-5 74.1 µM | HOP-92 20.2 µM | DLD-1 23.1 µM | KM-20L2 29.4 µM | SK-MEL-5 17.3 µM | HOP-18 12 µM | IGROV-1 25.4 µM | OVCAR-8 19.4 µM | A498 15.6 µM | SF-268 19.8 µM | NCI-H522 20.3 µM | LXFL 529 20.4 µM | DMS-273 22.1 µM | TK-10 36.6 µM | OVCAR-3 17.7 µM | HT-29 28.9 µM
28.1 µM: HCT-15
